# In US9757375B2, “Compounds that inhibit human DNA ligases and methods of treating cancer” (University of Maryland, Baltimore, priority 2007, dated 2017):
# Biological target: T1, T4 DNA ligase (Enterobacteria phage T4, UniProt P00970)
# T1 construct: purchased NEB
# T1 sequence (P00970 1-487): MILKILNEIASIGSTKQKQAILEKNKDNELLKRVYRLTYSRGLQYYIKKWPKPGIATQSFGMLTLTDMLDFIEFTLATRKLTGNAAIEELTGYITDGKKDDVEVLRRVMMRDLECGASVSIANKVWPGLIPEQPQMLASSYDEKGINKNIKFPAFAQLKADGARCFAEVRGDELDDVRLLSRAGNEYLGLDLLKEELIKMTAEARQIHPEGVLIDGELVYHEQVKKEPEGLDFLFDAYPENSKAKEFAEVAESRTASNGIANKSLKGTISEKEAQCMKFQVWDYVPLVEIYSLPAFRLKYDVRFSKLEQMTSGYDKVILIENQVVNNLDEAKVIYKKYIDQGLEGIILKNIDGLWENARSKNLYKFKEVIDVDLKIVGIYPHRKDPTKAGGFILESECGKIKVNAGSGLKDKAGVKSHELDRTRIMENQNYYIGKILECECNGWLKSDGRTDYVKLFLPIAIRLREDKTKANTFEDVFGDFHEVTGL
# Assay: High-throughput fluorescence-based DNA joining assay, non-specific inhibitor control
# Assay type: biochemical, bacteriophage T4
# Details: 100 uM
# Summary of the method: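 This counter-screen used a FRET-based DNA joining assay. Duplicate reactions held 10 pmol nicked DNA substrate and 10 units T4 DNA ligase, with or without 100 μmol/L compound. T4 ligase lacks the DNA-binding domain targeted in silico, so compounds inhibiting it were flagged as non-specific, likely DNA-binding.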
row,SMILES,% activity Inhibition LigT4 100 uM [%]
1,CS(=O)(=O)NNC(=O)C(=O)NNc1ccccc1 [Compound 184],0.42 ± 1.4

# Same assay, conditions: 100 μM
row,SMILES,In vitro % inhib T4 100 (μM) [%]
1,CS(=O)(=O)NNC(=O)C(=O)NNc1ccccc1 [Compound 184],1 ± 1

# Same assay, conditions: 100 μM; read-out: In vitro % inhib T4 100
row,SMILES,inhibition at 100 µM [%]
1,O=c1[nH]ncc(N/N=C\c2ccc(O)c([N+](=O)[O-])c2)c1Cl [Compound 82],14 ± 11
2,O=C(Cn1cnc([N+](=O)[O-])n1)N/N=C/c1ccc(O)cc1O [Compound 151],0
3,COc1ccc(-c2cnc3c(O)nc(O)nc3n2)cc1 [Compound 190],5 ± 1
4,O=C(c1ccc(O)cc1)c1ccccc1O [Compound 200],0
5,Nc1nc(S)nc(O)c1/N=C/c1ccccc1 [Compound 189],3 ± 2

# Same assay, conditions: in vitro screen, 100 μmol/L
row,SMILES,"inhibition of T4 DNA ligase, in words"
1,O=c1[nH]ncc(N/N=C\c2ccc(O)c([N+](=O)[O-])c2)c1Cl [Compound 82],inhibit hLigI but not T4 DNA ligase
2,Nc1nc(S)nc(O)c1/N=C/c1ccccc1 [Compound 189],inhibit hLigI but not T4 DNA ligase

# Same assay, conditions: read-out: % activity Inhibition LigT4 100 uM
row,SMILES,inhibition at 100 µM [%]
1,O=c1[nH]ncc(N/N=C\c2ccc(O)c([N+](=O)[O-])c2)c1Cl [Compound 82],13.9 ± 11.4
2,COc1ccc(-c2cnc3c(O)nc(O)nc3n2)cc1 [Compound 190],5.4 ± 0.74
3,O=C(c1ccc(O)cc1)c1ccccc1O [Compound 200],0
4,Nc1nc(S)nc(O)c1/N=C/c1ccccc1 [Compound 189],3.2 ± 1.9

# System: DNA
# Assay: DNA binding by displacement of ethidium bromide from DNA
# Details: EtBr replacement assay; 192 at 0, 50, 100 μM
# Description: Candidate ligase inhibitors identified by CADD were assayed for their ability to inhibit hLigI and T4 DNA ligase using a high-throughput, fluorescence energy transfer-based DNA joining assay (22). Duplicate reactions (30 μL) containing 10 pmol of nicked DNA substrate and either 0.25 pmol of hLigI or 10 units of T4 DNA ligase were incubated in the presence or absence of 100 μmol/L of the putative inhibitor. DNA binding by the candidate DNA ligase inhibitors was measured by displacement of ethidium bromide from DNA as previously described (30).
row,SMILES,DNA binding of compound (effect on DNA binding by ethidium bromide)
1,O=c1[nH]ncc(N/N=C\c2ccc(O)c([N+](=O)[O-])c2)c1Cl [Compound 82],had no effect on DNA binding by ethidium bromide
2,Nc1nc(S)nc(O)c1/N=C/c1ccccc1 [Compound 189],had no effect on DNA binding by ethidium bromide

# System: HCT116 cells
# Assay: Cell proliferation screen (SYBR Green, Biomek FX)
# Assay type: cell-based, human
# Details: 50 uM
# Description: (§1) The ability of the compounds identified by CADD to inhibit proliferation of normal mammary epithelial MCF10A cells and colon carcinoma HCT116 cells was determined using a Biomek FX Laboratory Automation Workstation (Beckman Coulter, Inc., Fullerton, Calif.). On day 0, 20 μl of complete medium containing the appropriate number of cells (150-300) was plated per well of a 384-well tissue plate (Fisher Scientific, Hampton, N.H.) and incubated overnight at 37° C. with 5% CO2 and 90% humidity. Next day, day 1, compounds were prepared by serial dilution with complete medium to yield the concentration 100 μM, and 20 μl was added to each well containing 20 μl of medium and cells yielding the final concentration 50 μM in 40 μl volume. Plates were incubated for additional 3 days (days-2-5) until control cells (0.5% DMSO) reached ˜70-80% confluency. On day 6, 40 μl of lysis/detection solution containing 1.2% Igepal CA-630 (Sigma) and a 1:1000 dilution of SYBR Green I nucleic acid stain (Molecular Probes, Eugene, Oreg.) was added to each well. Following an overnight incubation at 37° C., total fluorescence was measured using a Fluorostar Galaxy plate reader with a 485 nm excitation filter and 520 nm emission filter set (BMG Labtech, Inc., Durham, N.C.). Data was exported to a custom program that determined growth inhibition by dividing each individual fluorescence value by the average of fluorescence values obtained with cells treated with DMSO alone.
# (§2) The 192 human DNA ligase inhibitors were screened in parallel for effects on proliferation and the ability to potentiate the effects of several DNA damaging agents using two cell human lines, a colon cancer line HCT116 and a normal breast epithelial cell line MCF10A using a Biomek FX Laboratory Automation Workstation as described (23). The DNA damaging agents used, methyl methanesulfonate (MMS), camptothecin, cis-platinum, 3 aminobenzamide and ionizing radiation, are representatives of classes of agents used to treat cancer. Briefly, HCT116 and MCF10A cells were plated in 96 well plates such that the cultures were about 80% confluent after 5 days incubation. Compounds were added to the cultures at either 15 μM or 50 μM 1 day after plating. After incubation for 3 days, cell lysed in a solution containing 1.2% Igepal CA-630 and SYBR green that stains DNA (1:1000, Molecular Probes, Eugene, Oreg.). Subsequently, fluorescence was measured per well. The studies with DNA damaging agents were performed as follows. […] For ionizing radiation, cells were pre-incubated with the compounds at 50 μM for 1 hour prior to exposure to 2 gray of ionizing radiation. Cultures were incubated for 3 days and then treated as above.
row,SMILES,% growth inhibition HCT116 50 uM [%]
1,CS(=O)(=O)NNC(=O)C(=O)NNc1ccccc1 [Compound 184],40

# Same assay, conditions: 50 μM
row,SMILES,In vitro growth inhb HCT116 % Inhb at 50 (μM) [%]
1,O=c1[nH]ncc(N/N=C\c2ccc(O)c([N+](=O)[O-])c2)c1Cl [Compound 82],40
2,O=C(Cn1cnc([N+](=O)[O-])n1)N/N=C/c1ccc(O)cc1O [Compound 151],70
3,COc1ccc(-c2cnc3c(O)nc(O)nc3n2)cc1 [Compound 190],40
4,Nc1nc(S)nc(O)c1/N=C/c1ccccc1 [Compound 189],70
5,CS(=O)(=O)NNC(=O)C(=O)NNc1ccccc1 [Compound 184],40

# Same assay, conditions: 50 μM; percentage of values obtained with DMSO alone
row,SMILES,Growth_Inh % (50 μM) HCT116 [%]
1,O=c1[nH]ncc(N/N=C\c2ccc(O)c([N+](=O)[O-])c2)c1Cl [Compound 82],40
2,COc1ccc(-c2cnc3c(O)nc(O)nc3n2)cc1 [Compound 190],40
3,Nc1nc(S)nc(O)c1/N=C/c1ccccc1 [Compound 189],70

# Same assay, conditions: Homo sapiens, HCT-116; read-out: % growth inhibition HCT116 50 uM
row,SMILES,inhibition at 50 µM [%]
1,O=c1[nH]ncc(N/N=C\c2ccc(O)c([N+](=O)[O-])c2)c1Cl [Compound 82],40
2,O=C(Cn1cnc([N+](=O)[O-])n1)N/N=C/c1ccc(O)cc1O [Compound 151],70
3,COc1ccc(-c2cnc3c(O)nc(O)nc3n2)cc1 [Compound 190],40
4,O=C(c1ccc(O)cc1)c1ccccc1O [Compound 200],70
5,Nc1nc(S)nc(O)c1/N=C/c1ccccc1 [Compound 189],70

# System: MCF10A cells
# Assay: Cell proliferation screen (SYBR Green, Biomek FX)
# Assay type: cell-based, human
# Details: 50 uM
# Description: as §1, §2
row,SMILES,% growth inhibition MCF10A 50 uM [%]
1,CS(=O)(=O)NNC(=O)C(=O)NNc1ccccc1 [Compound 184],70

# Same assay, conditions: 50 μM
row,SMILES,% growth inhibition of MCF10A cells in culture at 50 uM [%]
1,CS(=O)(=O)NNC(=O)C(=O)NNc1ccccc1 [Compound 184],70

# Same assay, conditions: 50 μM; percentage of values obtained with DMSO alone
row,SMILES,Growth_Inh % (50 μM) MCF10A [%]
1,O=c1[nH]ncc(N/N=C\c2ccc(O)c([N+](=O)[O-])c2)c1Cl [Compound 82],70
2,COc1ccc(-c2cnc3c(O)nc(O)nc3n2)cc1 [Compound 190],70
3,Nc1nc(S)nc(O)c1/N=C/c1ccccc1 [Compound 189],70

# Same assay, conditions: Homo sapiens, MCF-10A; 50 μM; read-out: In vivo growth inhb MCF10A % Inhb at 50
row,SMILES,inhibition at 50 µM [%]
1,O=c1[nH]ncc(N/N=C\c2ccc(O)c([N+](=O)[O-])c2)c1Cl [Compound 82],70
2,O=C(Cn1cnc([N+](=O)[O-])n1)N/N=C/c1ccc(O)cc1O [Compound 151],70
3,COc1ccc(-c2cnc3c(O)nc(O)nc3n2)cc1 [Compound 190],40
4,Nc1nc(S)nc(O)c1/N=C/c1ccccc1 [Compound 189],70

# Same assay, conditions: Homo sapiens, MCF-10A; read-out: % growth inhibition MCF10A 50 uM
row,SMILES,inhibition at 50 µM [%]
1,O=c1[nH]ncc(N/N=C\c2ccc(O)c([N+](=O)[O-])c2)c1Cl [Compound 82],70
2,O=C(Cn1cnc([N+](=O)[O-])n1)N/N=C/c1ccc(O)cc1O [Compound 151],70
3,COc1ccc(-c2cnc3c(O)nc(O)nc3n2)cc1 [Compound 190],40
4,O=C(c1ccc(O)cc1)c1ccccc1O [Compound 200],70
5,Nc1nc(S)nc(O)c1/N=C/c1ccccc1 [Compound 189],70

# System: HCT116 and MCF10A cells
# Assay: Cell proliferation screen, result stated for one or both cell lines
# Assay type: cell-based, human
# Details: in vivo cell culture screen
# Description: as §1, §2
row,SMILES,"inhibition of cell proliferation, in words"
1,O=c1[nH]ncc(N/N=C\c2ccc(O)c([N+](=O)[O-])c2)c1Cl [Compound 82],inhibited cell proliferation
2,O=C(Cn1cnc([N+](=O)[O-])n1)N/N=C/c1ccc(O)cc1O [Compound 151],inhibited cell proliferation
3,COc1ccc(-c2cnc3c(O)nc(O)nc3n2)cc1 [Compound 190],inhibited cell proliferation
4,Nc1nc(S)nc(O)c1/N=C/c1ccccc1 [Compound 189],inhibited cell proliferation
5,CS(=O)(=O)NNC(=O)C(=O)NNc1ccccc1 [Compound 184],inhibited cell proliferation

# System: MCF7, HCT116, HeLa, and MCF10A cells
# Assay: Survival assay on cell panel (FIG. 9)
# Assay type: cell-based, human
# Details: Homo sapiens; cell line not stated
# Excerpt: FIG. 9. […] A, effect of L67 (left) and L189 (right) on the survival of MCF7 (Δ), HCT116 (□), HeLa (⋄), and MCF10A (upsidedown triangle) cells. B, normal breast epithelial MCF10A cells (open symbols) and breast cancer MCF7 cells (filled symbols) in the absence (circles) or presence of 3 μmol/L of L67 (squares) were exposed to increasing concentrations of MMS (left). Normal breast epithelial MCF10A cells (open symbols) and colon cancer HCT116 cells (filled symbols) in the absence (circles) or presence of 20 μmol/L of L189 (squares) were exposed to increasing doses of ionizing radiation (right). C, hLigI (I), hLigIIIα (III), and hLigIV (IV) were detected in extracts (400 μg) of the indicated cell lines by immunoblotting. To control for extract loading β-actin was also detected by immunoblotting.
# For survival assays, cells were plated in 6 well plates and grown either in the absence or presence of ligase inhibitors. Where indicated, either MMS (0-50 μM) was added to the medium or the cells were irradiated in a Cs-137 irradiator (0-2.5 Gy). After two weeks, colonies were stained with crystal violet (Sigma) and then counted.
row,SMILES,EC50 [µM]
1,O=c1[nH]ncc(N/N=C\c2ccc(O)c([N+](=O)[O-])c2)c1Cl [Compound 82],~50
2,O=C(Cn1cnc([N+](=O)[O-])n1)N/N=C/c1ccc(O)cc1O [Compound 151],~10
3,Nc1nc(S)nc(O)c1/N=C/c1ccccc1 [Compound 189],~50

# Same assay, conditions: L67 3 μmol/L with MMS (MCF7 vs MCF10A); L189 20 μmol/L with ionizing radiation (HCT116 vs MCF10A), FIG. 9B
row,SMILES,potentiation of the cytotoxic effects of DNA-damaging agents
1,Nc1nc(S)nc(O)c1/N=C/c1ccccc1 [Compound 189],potentiate the cytotoxic effects of DNA-damaging agents

# Same assay, conditions: MCF7, HCT116, HeLa, MCF10A, FIG. 9A
row,SMILES,cytotoxicity (cell survival)
1,Nc1nc(S)nc(O)c1/N=C/c1ccccc1 [Compound 189],cytotoxic

# Same assay, conditions: cell line not stated
SMILES,cell survival: remark in words,EC50 [µM]
O=c1[nH]ncc(N/N=C\c2ccc(O)c([N+](=O)[O-])c2)c1Cl [Compound 82],"cytostatic, G1",–
O=C(c1ccc(O)cc1)c1ccccc1O [Compound 200],metabolite active,–
CS(=O)(=O)NNC(=O)C(=O)NNc1ccccc1 [Compound 184],–,~10
